# According to publication PMC11310889, “Ribosomal translation of fluorinated non-canonical amino acids for de novo biologically active fluorinated macrocyclic peptides” (Chemical Science, 2024):
# Tests used:
# Type in all cases: cell-based, Escherichia coli
# [1] = system: E. coli W3110; test: Protein leakage assay; details: E. coli W3110, 5 μM peptide, 15 min, pellet analysed by SDS-PAGE, compared to R9-treated sample (Fig. S10)
# Experimental: Thaw the previously preserved E. coli W3110 cells from the -80 °C freezer. Scrape a small amount and inoculate it into 1 mL of LB liquid medium. Incubate overnight in a 37°C shaker. Next day, transfer the culture to fresh LB liquid medium at a 1:100 inoculation ratio and incubate at 37 °C until the OD600 reaches approximately 0.47 to 0.53. Collect 300 μL of the E. coli W3110 cells and centrifuge for 2 min at 13,000 rpm, discarding the supernatant afterward. Resuspend the untreated group in 300 μL of PBS, and the peptide treatment group in 297 μL of ddH2O. Add 3 μL of 0.5 mM different peptides to the treatment group, mix well, and allow to react for 15 min. After the treatment, resuspend all samples in 15 μL of 6×SDS loading buffer and 15 μL of 10% SDS. All samples were heated at 99.9°C for 15 min, followed by 10% SDS-PAGE analysis and staining with Coomassie brilliant blue R250. […]
# (§1) Incubate overnight in a 37°C shaker. […]
# [2] = system: E. coli W3110; test: Scanning electron microscopy of cell morphology; details: E. coli W3110 logarithmic-phase, 4 h treatment at 2 μM and 5 μM (Fig. 5B, S11)
# Experimental: Thaw the previously preserved E. coli W3110 cells from the -80 °C freezer. […]
# Scanning electron microscopy
# Thaw the previously preserved E. coli W3110 cells from the -80°C freezer. Scrape a small amount and inoculate it into 1 mL of LB liquid medium. Incubate overnight in a 37°C shaker. The next day, inoculate the strain into fresh LB liquid medium at a 1:100 ratio and incubate at 37°C until the OD600 reaches approximately 0.47 to 0.53. Take 500 μL of E. coli W3110 cells, centrifuge for 10 min at 4000 rpm, and discard the supernatant. Resuspend the cells in 500 μL of PBS, then centrifuge again at 4000 rpm for 10 min and discard the supernatant. Dissolve various macrocyclic peptides in DMSO and dilute to the required concentration. Resuspend the untreated group in 500 μL of PBS.
# For the peptide treatment group, resuspend in 495 μL of ddH2O, add 5 μL of 0.2 mM or 0.5 mM peptides, mix well, and let react for 4 h.
# After the treament, spot 4 μL of the sample on plates. Perform the first ten-fold dilution and mix, then continue with the second to fifth ten-fold dilutions. Incubate the plates inverted overnight in a 37°C incubator. Scan and count the colonies. For the remaining 492 μL, centrifuge at 6100g for 10 min, discard the supernatant, add 500 μL of ddH2O, and let it stand for 15 min. Centrifuge again at 6100g for 10 min, discard the supernatant, and add 500 μL of ddH2O containing 2.5% glutaraldehyde. Resuspend and fix the cells overnight at 4°C. Centrifuge at 6100g for 10 min, remove the supernatant, and wash twice with ddH2O, letting it stand for 15 min each time, followed by centrifugation at 6100g for 10 min. Discard the supernatant. Dehydrate the sample with ethanol at concentration gradients of 30%, 60%, and 90%, without resuspension, centrifuging at 6100g for […]
# 10 min and discarding the supernatant after each step. Finally, use 100% ethanol, rest for 15 min, centrifuge at 6100g for 10 min, discard the supernatant, and repeat with 100% ethanol, leaving about 10 μL. Then the critical point was dried and sprayed with gold, and the images were observed by […]
# Prediction of binding sites between peptides and the BAM complex
# Firstly, the fpocket algorithm was used, a rapid method for pocket prediction based on the three-dimensional structure of BAM complex (PDB ID: 5AYW). This method establishes a grid surrounding the protein, positioning alpha spheres on grid points devoid of spatial conflicts with protein atoms, subsequently utilizing a clustering algorithm to ascertain whether these regions constitute potential binding pockets. Alpha spheres were designated with radii ranging from 3.4Å to 6.2Å, with a prerequisite of at least 15 alpha spheres for a region to be considered a pocket. […]
# PepNN evaluated each amino acid for its potentiality as a peptide binding site. […]
# [3] = system: E. coli W3110; test: Propidium iodide (PI) assay of membrane permeability; details: E. coli W3110 logarithmic-phase, 15 min treatment with 5 μM peptide, PI 25 μg/mL 15 min (Fig. 5A)
# Experimental: Propidium Iodide (PI) assay
# Thaw the previously preserved E. coli W3110 cells from the -80 °C freezer. Scrape a small amount and inoculate it into 1 mL of LB liquid medium. Culture overnight in a 37°C shaker. Next day, inoculate the strain into fresh LB liquid medium at a 1:100 ratio and incubate at 37 °C until the OD600 reaches approximately 0.47 to 0.53. Take 100 μL of the E. coli W3110 cells and centrifuge for 2 min at 13,000 rpm. Discard the supernatant. For the untreated group, resuspend the cells in 100 μL of PBS. For the peptide treatment group, resuspend the cells in 99 μL of ddH2O and add 1 […]
# μL of 0.5 mM of the different peptides. Mix thoroughly and let react for 15 min. After the treatment, take 80 μL of each sample and incubate with PI at a final concentration of 25 μg/mL for 15 min.
# After incubation, wash the samples with the same amount of PBS, centrifuge, and resuspend at a 10-fold concentration. Observe the images using a Nikon Eclipse Ci-L Plus microscope. […]
# as §1
# Centrifuge again at
# 6100g for 10 min, discard the supernatant, and add 500 μL of ddH2O containing 2.5% glutaraldehyde. Resuspend and fix the cells overnight at 4°C. Centrifuge at 6100g for 10 min, remove the supernatant, and wash twice with ddH2O, letting it stand for 15 min each time, followed by centrifugation at 6100g for 10 min. Discard the supernatant. Dehydrate the sample with ethanol at concentration gradients of 30%, 60%, and 90%, without resuspension, centrifuging at 6100g for […]
substance,measurement,setting,value
"Ac-DYLIWYSRSHPFRVCGS(Acp)RRRRRRRRR-NH2 (sidechain bridge or staple) [BAM-D1-R9, BAM-D1 conjugated with cell-penetrating peptide R9]",cellular protein leakage,[1],partial cellular protein leakage
same,morphological changes by scanning electron microscopy,[2],severe damage in the cell shape and even lysis
same,PI red fluorescence (cell membrane permeability),[3],notable red fluorescence intensity
